Measurements as given in US20220289794A1, “SYNTHETIC ANTIMICROBIAL PEPTIDES” (priority 2019, published 2022).
≈ marks a conversion by molar mass, not a printed value. Non-standard residues stand in square brackets, D forms with d. Residues, ends and D or L forms follow the SMILES beside them. Trp(6-Cl) = N[C@@H](Cc1c[nH]c2cc(Cl)ccc12)C(=O)O; dDip = N[C@@H](C(=O)O)C(c1ccccc1)c1ccccc1; Dip = N[C@H](C(=O)O)C(c1ccccc1)c1ccccc1; d2Nal = N[C@H](Cc1ccc2ccccc2c1)C(=O)O; Dab = NCC[C@H](N)C(=O)O

What was measured:
S. aureus ATCC 29213 = conditions: ATCC 29213
human red blood cells = tested on: human red blood cells; parameters: unit not given beside the values
[1] = tested on: Methicillin-resistant Staphylococcus aureus MRSA (ATCC BAA-1556); conditions: ATCC BAA-1556
[2] = tested on: Pseudomonas aeruginosa (ATCC 27883); conditions: ATCC 27883
[3] = tested on: Escherichia coli (ATCC 25922); conditions: ATCC 25922
in vitro = conditions: human, fresh human red blood cells (washed), pH 7.4

MIC S. aureus ATCC 29213 (S. aureus ATCC 29213) | HC50 (human red blood cells) | MIC MRSA ATCC BAA-1556 [1] | MIC P. aeruginosa ATCC 27883 [2] | MIC E. coli ATCC 25922 [3] | HC50 at 0.5 h (in vitro) | SMILES
6.2 µg/mL (≈ 4.53 µM) | 670 | 6.2 µg/mL (≈ 4.53 µM) | 25 µg/mL (≈ 18.3 µM) | 12.5 µg/mL (≈ 9.13 µM) | – | N=C(N)NCCC[C@@H]1NC(=O)[C@H](CCCNC(=N)N)NC(=O)[C@H](CCCNC(=N)N)NC(=O)[C@@H](Cc2c[nH]c3ccccc23)NC(=O)[C@@H](Cc2c[nH]c3ccccc23)NC(=O)[C@@H](Cc2c[nH]c3ccccc23)NC(=O)[C@@H](Cc2c[nH]c3ccccc23)NC(=O)[C@H](CCCNC(=N)N)NC1=O [IFX-035, c[Arg-Arg-Arg-Arg-trp-trp-trp-trp]] (cyclo(RRRR[dW][dW][dW][dW]))
6.2 µg/mL (≈ 4.53 µM) | 600 | 6.2 µg/mL (≈ 4.53 µM) | 25 µg/mL (≈ 18.3 µM) | 12.5 µg/mL (≈ 9.13 µM) | – | N=C(N)NCCC[C@H]1NC(=O)[C@H](Cc2c[nH]c3ccccc23)NC(=O)[C@H](Cc2c[nH]c3ccccc23)NC(=O)[C@H](Cc2c[nH]c3ccccc23)NC(=O)[C@H](Cc2c[nH]c3ccccc23)NC(=O)[C@@H](CCCNC(=N)N)NC(=O)[C@@H](CCCNC(=N)N)NC(=O)[C@@H](CCCNC(=N)N)NC1=O [IFX-036, c[arg-arg-arg-arg-Trp-Trp-Trp-Trp]] (cyclo([dR][dR][dR][dR]WWWW))
3.1 µg/mL (≈ 2.03 µM) | 670 | 6.2 µg/mL (≈ 4.06 µM) | 25 µg/mL (≈ 16.4 µM) | 12.5 µg/mL (≈ 8.19 µM) | – | N=C(N)NCCC[C@H]1NC(=O)[C@@H](CCCNC(=N)N)NC(=O)[C@@H](CCCNC(=N)N)NC(=O)[C@@H](Cc2c[nH]c3ccccc23)NC(=O)[C@@H](Cc2c[nH]c3ccccc23)NC(=O)[C@@H](Cc2c[nH]c3ccccc23)NC(=O)[C@@H](Cc2c[nH]c3ccccc23)NC(=O)[C@@H](CCCNC(=N)N)NC(=O)[C@@H](CCCNC(=N)N)NC1=O [IFX-037, c[arg-arg-arg-arg-arg-trp-trp-trp-trp]]
3.1 µg/mL (≈ 2.06 µM) | 490 | 3.1 µg/mL (≈ 2.06 µM) | 100 µg/mL (≈ 66.3 µM) | 100 µg/mL (≈ 66.3 µM) | – | N=C(N)NCCC[C@@H]1NC(=O)[C@H](CCCNC(=N)N)NC(=O)[C@H](CCCNC(=N)N)NC(=O)[C@H](Cc2c[nH]c3cc(Cl)ccc23)NC(=O)[C@H](Cc2c[nH]c3cc(Cl)ccc23)NC(=O)[C@H](Cc2c[nH]c3cc(Cl)ccc23)NC(=O)[C@H](Cc2c[nH]c3cc(Cl)ccc23)NC(=O)[C@H](CCCNC(=N)N)NC1=O [IFX-040, c[Arg-Arg-Arg-Arg-6clW-6clW-6clW-6clW]] (cyclo(RRRR[Trp(6-Cl)][Trp(6-Cl)][Trp(6-Cl)][Trp(6-Cl)]))
6.2 µg/mL (≈ 4.18 µM) | 580 | 6.2 µg/mL (≈ 4.18 µM) | 50 µg/mL (≈ 33.7 µM) | 25 µg/mL (≈ 16.8 µM) | – | N=C(N)NCCC[C@@H]1NC(=O)CNC(=O)[C@H](Cc2c[nH]c3ccccc23)NC(=O)[C@H](Cc2c[nH]c3ccccc23)NC(=O)[C@H](Cc2c[nH]c3ccccc23)NC(=O)[C@H](Cc2c[nH]c3ccccc23)NC(=O)CNC(=O)[C@H](CCCNC(=N)N)NC(=O)[C@H](CCCNC(=N)N)NC(=O)[C@H](CCCNC(=N)N)NC1=O [IFX-043] (cyclo(GRRRRGWWWW))
25 µg/mL (≈ 15.1 µM) | 390 | 25 µg/mL (≈ 15.1 µM) | 50 µg/mL (≈ 30.2 µM) | 50 µg/mL (≈ 30.2 µM) | – | C[C@@H]1NC(=O)[C@H](C)NC(=O)[C@H](CCCNC(=N)N)NC(=O)[C@H](CCCNC(=N)N)NC(=O)[C@H](CCCNC(=N)N)NC(=O)[C@H](CCCNC(=N)N)NC(=O)[C@H](C)NC(=O)[C@H](C)NC(=O)[C@H](Cc2c[nH]c3ccccc23)NC(=O)[C@H](Cc2c[nH]c3ccccc23)NC(=O)[C@H](Cc2c[nH]c3ccccc23)NC(=O)[C@H](Cc2c[nH]c3ccccc23)NC1=O [IFX-045] (cyclo(AARRRRAAWWWW))
32 µg/mL (≈ 24.5 µM) | 620 | 64 µg/mL (≈ 49 µM) | 64 µg/mL (≈ 49 µM) | 32 µg/mL (≈ 24.5 µM) | – | N=C(N)NCCC[C@@H]1NC(=O)[C@@H](CCCNC(=N)N)NC(=O)[C@H](CCCNC(=N)N)NC(=O)[C@@H](Cc2ccc3ccccc3c2)NC(=O)[C@@H](Cc2ccc3ccccc3c2)NC(=O)[C@H](Cc2c[nH]c3ccccc23)NC(=O)[C@H](CCN)NC(=O)[C@@H](CCCNC(=N)N)NC1=O [IFX-054, c[Arg-arg-Arg-arg-Dab-Trp-naI-naI]] (cyclo([Dab]W[d2Nal][d2Nal]R[dR]R[dR]))
32 µg/mL (≈ 24.5 µM) | 575 | 32 µg/mL (≈ 24.5 µM) | 32 µg/mL (≈ 24.5 µM) | 16 µg/mL (≈ 12.3 µM) | – | N=C(N)NCCC[C@@H]1NC(=O)[C@H](CCN)NC(=O)[C@@H](CCCNC(=N)N)NC(=O)[C@H](CCCNC(=N)N)NC(=O)[C@@H](Cc2ccc3ccccc3c2)NC(=O)[C@@H](Cc2ccc3ccccc3c2)NC(=O)[C@H](Cc2c[nH]c3ccccc23)NC(=O)[C@@H](CCCNC(=N)N)NC1=O [IFX-055, c[Arg-arg-Dab-Arg-arg-Trp-naI-naI]] (cyclo([Dab]R[dR]W[d2Nal][d2Nal]R[dR]))
32 µg/mL (≈ 24.5 µM) | 415 | 64 µg/mL (≈ 49 µM) | 32 µg/mL (≈ 24.5 µM) | 32 µg/mL (≈ 24.5 µM) | – | N=C(N)NCCC[C@@H]1NC(=O)[C@H](CCN)NC(=O)[C@@H](Cc2ccc3ccccc3c2)NC(=O)[C@@H](Cc2ccc3ccccc3c2)NC(=O)[C@H](Cc2c[nH]c3ccccc23)NC(=O)[C@@H](CCCNC(=N)N)NC(=O)[C@H](CCCNC(=N)N)NC(=O)[C@@H](CCCNC(=N)N)NC1=O [IFX-056, c[Dab-Arg-arg-Arg-arg-Trp-naI-naI]] (cyclo([Dab]R[dR]R[dR]W[d2Nal][d2Nal]))
16 µg/mL (≈ 11.4 µM) | 520 | 32 µg/mL (≈ 22.8 µM) | 32 µg/mL (≈ 22.8 µM) | 32 µg/mL (≈ 22.8 µM) | – | N=C(N)NCCC[C@@H]1NC(=O)[C@H](CCN)NC(=O)[C@@H](Cc2ccc3ccccc3c2)NC(=O)[C@@H](Cc2ccc3ccccc3c2)NC(=O)[C@H](Cc2c[nH]c3ccccc23)NC(=O)[C@H](CCN)NC(=O)[C@@H](CCCNC(=N)N)NC(=O)[C@H](CCCNC(=N)N)NC(=O)[C@@H](CCCNC(=N)N)NC1=O [IFX-057, c[Dab-Arg-arg-Arg-arg-Dab-Trp-naI-naI]] (cyclo([Dab]R[dR]R[dR][Dab]W[d2Nal][d2Nal]))
32 µg/mL (≈ 22.8 µM) | 655 | 64 µg/mL (≈ 45.5 µM) | 32 µg/mL (≈ 22.8 µM) | 32 µg/mL (≈ 22.8 µM) | – | N=C(N)NCCC[C@@H]1NC(=O)[C@H](CCN)NC(=O)[C@@H](Cc2ccc3ccccc3c2)NC(=O)[C@@H](Cc2ccc3ccccc3c2)NC(=O)[C@H](Cc2c[nH]c3ccccc23)NC(=O)[C@@H](CCCNC(=N)N)NC(=O)[C@H](CCCNC(=N)N)NC(=O)[C@H](CCN)NC(=O)[C@@H](CCCNC(=N)N)NC1=O [IFX-058, c[Dab-Arg-arg-Dab-Arg-arg-Trp-naI-naI]] (cyclo([Dab]R[dR][Dab]R[dR]W[d2Nal][d2Nal]))
64 µg/mL (≈ 45.5 µM) | 780 | 128 µg/mL (≈ 91.1 µM) | 32 µg/mL (≈ 22.8 µM) | 32 µg/mL (≈ 22.8 µM) | – | N=C(N)NCCC[C@@H]1NC(=O)[C@H](CCN)NC(=O)[C@@H](CCCNC(=N)N)NC(=O)[C@H](CCCNC(=N)N)NC(=O)[C@@H](Cc2ccc3ccccc3c2)NC(=O)[C@@H](Cc2ccc3ccccc3c2)NC(=O)[C@H](Cc2c[nH]c3ccccc23)NC(=O)[C@H](CCN)NC(=O)[C@@H](CCCNC(=N)N)NC1=O [IFX-059, c[Arg-arg-Dab-Arg-arg-Dab-Trp-naI-naI]] (cyclo([Dab]R[dR][Dab]W[d2Nal][d2Nal]R[dR]))
– | – | – | 12.5 µg/mL (≈ 9.66 µM) | – | 280 µg/mL | N=C(N)NCCC[C@@H]1NC(=O)[C@@H](CCCNC(=N)N)NC(=O)[C@H](CCCNC(=N)N)NC(=O)[C@@H](CCCNC(=N)N)NC(=O)[C@@H](C(c2ccccc2)c2ccccc2)NC(=O)[C@@H](C(c2ccccc2)c2ccccc2)NC(=O)[C@@H](C(c2ccccc2)c2ccccc2)NC1=O [IFX-068, c[arg-Arg-arg-Arg-dip-dip-dip]] (cyclo([dR]R[dR]R[dDip][dDip][dDip]))
– | – | – | 6.2 µg/mL (≈ 4.79 µM) | – | 200 µg/mL | N=C(N)NCCC[C@@H]1NC(=O)[C@@H](CCCNC(=N)N)NC(=O)[C@H](CCCNC(=N)N)NC(=O)[C@@H](CCCNC(=N)N)NC(=O)[C@@H](C(c2ccccc2)c2ccccc2)NC(=O)[C@H](C(c2ccccc2)c2ccccc2)NC(=O)[C@@H](C(c2ccccc2)c2ccccc2)NC1=O [IFX-069, c[arg-Arg-arg-Arg-dip-Dip-dip]] (cyclo([dR]R[dR]R[dDip][Dip][dDip]))
– | – | – | 12.5 µg/mL (≈ 9.66 µM) | – | 150 µg/mL | N=C(N)NCCC[C@@H]1NC(=O)[C@H](C(c2ccccc2)c2ccccc2)NC(=O)[C@@H](C(c2ccccc2)c2ccccc2)NC(=O)[C@H](C(c2ccccc2)c2ccccc2)NC(=O)[C@@H](CCCNC(=N)N)NC(=O)[C@H](CCCNC(=N)N)NC(=O)[C@@H](CCCNC(=N)N)NC1=O [IFX-071, c[Arg-arg-Arg-arg-Dip-dip-Dip]] (cyclo(R[dR]R[dR][Dip][dDip][Dip]))
– | – | – | 12.5 µg/mL (≈ 9.66 µM) | – | 265 µg/mL | N=C(N)NCCC[C@@H]1NC(=O)[C@H](CCCNC(=N)N)NC(=O)[C@H](CCCNC(=N)N)NC(=O)[C@@H](C(c2ccccc2)c2ccccc2)NC(=O)[C@@H](C(c2ccccc2)c2ccccc2)NC(=O)[C@@H](C(c2ccccc2)c2ccccc2)NC(=O)[C@H](CCCNC(=N)N)NC1=O [IFX-072, c[Arg-Arg-Arg-Arg-dip-dip-dip]] (cyclo(RRRR[dDip][dDip][dDip]))
